Test results taken from patent US8802597B2, “Herbicidal pyrimidines” (E I du Pont de Nemours and Company, priority 2003, dated 2014).

Experiments:
Test in all cases: Test A pre/postemergence
Format in all cases: in vivo
[1] = system: morningglory (Ipomoea spp.)
In short: (§1)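 Compared with untreated controls, treated plants were visually rated for injury on a 0 (none) to 100 (complete control) scale about ten days after spraying. Pre- and postemergence applications used one solvent/surfactant formulation; postemergence plants measured 2–10 cm.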

[2] = system: velvetleaf (Abutilon theophrasti)
In short: as §1

[3] = system: barnyardgrass (Echinochloa crus-galli)
In short: as §1

[4] = system: giant foxtail (Setaria faberi)
In short: as §1

[5] = system: crabgrass (Digitaria sanguinalis)
In short: as §1

[6] = system: redroot pigweed (Amaranthus retroflexus)
In short: as §1

[7] = Postemergence, 125 g ai/ha, 0 to 100 scale (0 no effect, 100 complete control)
[8] = Postemergence, 500 g ai/ha, 0 to 100 scale (0 no effect, 100 complete control)
[9] = Preemergence, 125 g ai/ha, 0 to 100 scale where 0 is no effect and 100 is complete control, approximately ten days
[10] = Preemergence, 500 g ai/ha, 0 to 100 scale where 0 is no effect and 100 is complete control, approximately ten days

| SMILES | Plant response rating, Morningglory [1, 7] | Plant response rating, Morningglory [1, 8] | Plant response rating, Morningglory [1, 9] | Plant response rating, Morningglory [1, 10] | Plant response rating, Velvetleaf [2, 7] | Plant response rating, Velvetleaf [2, 8] | Plant response rating, Velvetleaf [2, 9] | Plant response rating, Velvetleaf [2, 10] | Plant response rating, Barnyardgrass [3, 7] | Plant response rating, Barnyardgrass [3, 8] | Plant response rating, Barnyardgrass [3, 9] | Plant response rating, Barnyardgrass [3, 10] | Plant response rating, Foxtail, Giant [4, 7] | Plant response rating, Foxtail, Giant [4, 8] | Plant response rating, Foxtail, Giant [4, 9] | Plant response rating, Foxtail, Giant [4, 10] | Plant response rating, Crabgrass [5, 7] | Plant response rating, Crabgrass [5, 8] | Plant response rating, Crabgrass [5, 9] | Plant response rating, Crabgrass [5, 10] | also measured |
| --- | --- | --- | --- | --- | --- | --- | --- | --- | --- | --- | --- | --- | --- | --- | --- | --- | --- | --- | --- | --- | --- |
| CCOC(OCC)c1nc(-c2ccc(I)cc2)nc(N)c1Cl [Compound 138] | 0 | 20 | 0 | 0 | 60 | 70 | 0 | 0 | 0 | 0 | 0 | 0 | 0 | 0 | 0 | 0 | 0 | 0 | 0 | 0 | Plant response rating, Pigweed [6, 7]: 20; Plant response rating, Pigweed [6, 8]: 35; Plant response rating, Pigweed [6, 9]: 0; Plant response rating, Pigweed [6, 10]: 0 |
| CCCCOCCOC(=O)c1nc(C2CC2)nc(N)c1Cl [Compound 139] | 80 | 90 | 90 | 100 | 85 | 90 | 90 | 90 | 80 | 90 | 75 | 90 | 80 | 80 | 80 | 90 | 60 | 70 | 75 | 90 | Plant response rating, Pigweed [6, 7]: 90; Plant response rating, Pigweed [6, 8]: 100; Plant response rating, Pigweed [6, 9]: 90; Plant response rating, Pigweed [6, 10]: 100 |
| Nc1nc(C2CC2)nc(C(=O)OCC2CO2)c1Cl (stereo not drawn) [Compound 140] | 85 | 90 | 90 | 95 | 90 | 90 | 90 | 95 | 70 | 90 | 70 | 90 | 85 | 90 | 40 | 85 | 65 | 80 | 70 | 90 | Plant response rating, Pigweed [6, 7]: 90; Plant response rating, Pigweed [6, 8]: 100; Plant response rating, Pigweed [6, 9]: 90; Plant response rating, Pigweed [6, 10]: 95 |
| COCCOCCOC(=O)c1nc(C2CC2)nc(N)c1Cl [Compound 141] | 90 | 90 | 85 | 95 | 85 | 100 | 80 | 85 | 80 | 90 | 35 | 75 | 40 | 85 | 5 | 85 | 25 | 80 | 60 | 85 | Plant response rating, Pigweed [6, 7]: 90; Plant response rating, Pigweed [6, 8]: 100; Plant response rating, Pigweed [6, 9]: 80; Plant response rating, Pigweed [6, 10]: 85 |
| Nc1nc(C2CC2)nc(C(=O)OCCCOC(=O)c2nc(C3CC3)nc(N)c2Cl)c1Cl [Compound 142] | 90 | 90 | 85 | 95 | 80 | 90 | 85 | 85 | 45 | 75 | 50 | 75 | 30 | 45 | 25 | 65 | 15 | 25 | 45 | 85 | Plant response rating, Pigweed [6, 7]: 85; Plant response rating, Pigweed [6, 8]: 90; Plant response rating, Pigweed [6, 9]: 70; Plant response rating, Pigweed [6, 10]: 90 |
| Nc1nc(C2CC2)nc(C(=O)OCCCO)c1Cl [Compound 143] | 90 | 90 | 90 | 100 | 75 | 95 | 90 | 95 | 55 | 75 | 65 | 85 | 25 | 80 | 35 | 75 | 5 | 60 | 70 | 95 | Plant response rating, Pigweed [6, 7]: 70; Plant response rating, Pigweed [6, 8]: 90; Plant response rating, Pigweed [6, 9]: 65; Plant response rating, Pigweed [6, 10]: 95 |
| CC(C)N.Nc1nc(C2CC2)nc(C(=O)O)c1Cl [Compound 144] | 85 | 95 | 85 | 95 | 95 | 100 | 75 | 85 | 60 | 90 | 65 | 80 | 70 | 80 | 35 | 80 | 40 | 80 | 75 | 95 | Plant response rating, Pigweed [6, 7]: 85; Plant response rating, Pigweed [6, 8]: 100; Plant response rating, Pigweed [6, 9]: 75; Plant response rating, Pigweed [6, 10]: 85 |
| Nc1nc(C2CC2)nc(C(=O)Oc2ccc(Cl)cc2)c1Cl [Compound 145] | 80 | 95 | 75 | 100 | 75 | 95 | 70 | 85 | 30 | 60 | 30 | 75 | 20 | 70 | 0 | 60 | 5 | 30 | 65 | 80 | Plant response rating, Pigweed [6, 7]: 80; Plant response rating, Pigweed [6, 8]: 90; Plant response rating, Pigweed [6, 9]: 65; Plant response rating, Pigweed [6, 10]: 85 |
| CC(C)=NOC(=O)c1nc(C2CC2)nc(N)c1Cl [Compound 146] | 85 | 100 | 95 | 100 | 85 | 100 | 85 | 100 | 70 | 90 | 65 | 90 | 80 | 85 | 60 | 90 | 20 | 80 | 35 | 75 | Plant response rating, Pigweed [6, 7]: 90; Plant response rating, Pigweed [6, 8]: 95; Plant response rating, Pigweed [6, 9]: 75; Plant response rating, Pigweed [6, 10]: 95 |
